Results as given in the NIST ThermoML archive (doi:10.1021/je049762q).

Experiment: molar heat capacity at constant pressure
Conditions: 101.33 kPa

Clc1cc(Cl)cc(Cl)c1 [1,3,5-trichlorobenzene]
molar heat capacity at constant pressure [J/K/mol]
Conditions	Crystal	Liquid
171.08 K	107.71	–
172.15 K	108.11	–
174.44 K	109.1	–
174.82 K	109.23	–
177.47 K	110.35	–
177.76 K	110.52	–
180 K	111.41	–
180.1 K	111.45	–
181.06 K	111.92	–
182.71 K	112.52	–
184.34 K	113.28	–
185.3 K	113.6	–
187.58 K	114.63	–
187.87 K	114.66	–
190 K	115.57	–
190.43 K	115.78	–
190.81 K	115.98	–
192.97 K	116.82	–
194.01 K	117.3	–
195.49 K	117.83	–
197.19 K	118.6	–
198 K	118.86	–
200 K	119.79	–
200.35 K	119.94	–
202.96 K	120.92	–
203.48 K	121.26	–
205.42 K	121.91	–
206.6 K	122.49	–
207.87 K	122.92	–
209.7 K	123.75	–
210 K	123.84	–
210.3 K	123.89	–
212.71 K	124.89	–
212.77 K	125.04	–
215.12 K	125.93	–
215.83 K	126.21	–
217.51 K	126.8	–
218.86 K	127.47	–
219.88 K	127.77	–
220 K	127.82	–
221.88 K	128.7	–
222.25 K	128.72	–
224.6 K	129.66	–
224.87 K	129.89	–
226.94 K	130.61	–
227.85 K	131.11	–
229.27 K	131.59	–
230 K	131.95	–
230.81 K	132.32	–
231.58 K	132.53	–
233.76 K	133.48	–
236.18 K	134.38	–
236.69 K	134.73	–
238.46 K	135.33	–
239.6 K	135.87	–
240 K	136.02	–
240.73 K	136.28	–
242.5 K	137.03	–
242.99 K	137.17	–
245.24 K	138.06	–
245.38 K	138.2	–
247.48 K	138.95	–
248.24 K	139.34	–
249.71 K	139.83	–
250 K	139.96	–
251.09 K	140.46	–
251.93 K	140.7	–
253.93 K	141.6	–
256.34 K	142.49	–
256.76 K	142.74	–
258.53 K	143.37	–
259.57 K	143.79	–
260 K	143.95	–
260.71 K	144.19	–
262.36 K	144.92	–
262.88 K	145.05	–
265.05 K	145.93	–
265.15 K	146.04	–
267.2 K	146.81	–
267.91 K	147.2	–
269.34 K	147.62	–
270 K	147.9	–
270.67 K	148.17	–
271.48 K	148.45	–
273.41 K	149.19	–
275.71 K	150.21	–
276.13 K	150.38	–
277.82 K	150.9	–
278.84 K	151.41	–
279.93 K	151.88	–
280 K	151.91	–
281.54 K	152.27	–
282.02 K	152.47	–
284.11 K	153.34	–
286.19 K	153.9	–
288.26 K	154.74	–
290 K	155.34	–
290.32 K	155.45	–
292.38 K	156.18	–
294.42 K	157	–
295.88 K	157.42	–
296.46 K	157.62	–
298.15 K	158.32	–
298.44 K	158.35	–
300 K	159.02	–
300.52 K	159.26	–
300.98 K	159.48	–
303.51 K	160.28	–
306.03 K	161.24	–
306.98 K	161.57	–
308.54 K	162.23	–
310 K	162.81	–
310.04 K	162.82	–
311.04 K	163.32	–
311.61 K	163.35	–
313.11 K	164.04	–
313.53 K	164.32	–
314.66 K	164.78	–
316 K	165.48	–
317.72 K	166.19	–
318.47 K	166.69	–
320 K	167.31	–
320.77 K	167.5	–
320.93 K	167.74	–
323.38 K	168.94	–
323.83 K	169.15	–
325.82 K	170.31	–
326.88 K	171.2	–
328.25 K	171.54	–
330 K	172.45	–
335.92 K	175.78	197.88
338.89 K	–	198.6
340 K	–	198.76
341.83 K	–	199.12
341.91 K	–	199.27
344.76 K	–	199.68
344.94 K	–	199.89
347.69 K	–	200.32
347.97 K	–	200.6
350 K	–	200.94
350.61 K	–	200.99
350.99 K	–	201.16
353.52 K	–	201.63
354 K	–	201.88
356.43 K	–	202.27
357.01 K	–	202.62
359.34 K	–	202.96
360 K	–	203.18
360.01 K	–	203.24
362.24 K	–	203.68
363.01 K	–	203.85
365.13 K	–	204.35
366 K	–	204.62
368.02 K	–	204.99
368.98 K	–	205.5
370 K	–	205.46
370.9 K	–	205.72
371.95 K	–	206
373.78 K	–	206.29
374.93 K	–	206.68
376.65 K	–	206.96
377.9 K	–	207.35
379.51 K	–	207.51
380 K	–	207.79
380.86 K	–	207.96
